Test results published in the NIST ThermoML archive (doi:10.1021/je800100m).
Numbers after ± are expanded uncertainties.

What was measured:
[1] = Liquid; for speed of sound: 101.3 kPa, Sing-around technique in a fixed-path interferometer; for mass density: 101.33 kPa, Pycnometric method
[2] = xn = mol fraction of the nth substance listed; conditions: 308.15 K, 101 kPa, Liquid, Sing-around technique in a fixed-path interferometer

Work on Cc1ccccc1C [1,2-dimethylbenzene] yielded a speed of sound ([1]; 298.15 K) of 1344 ± 5.4 m/s and a mass density ([1]; 298.15 K) of 875.99 ± 5.6 kg/m3.
Cc1ccccc1N [2-methylaniline] + Cc1ccccc1C showed a speed of sound ([2]; x1 = 0.0799) of 1325 ± 5 m/s, a speed of sound ([2]; x1 = 0.1313) of 1328 ± 5 m/s and a speed of sound ([2]; x1 = 0.1977) of 1333 ± 5 m/s. For the same compound, the speed of sound ([2]; x1 = 0.2507) was 1338 ± 5 m/s, the speed of sound ([2]; x1 = 0.3003) was 1345 ± 5 m/s and the speed of sound ([2]; x1 = 0.3663) was 1355 ± 5 m/s. For the same compound, the speed of sound ([2]; x1 = 0.4456) was 1370 ± 5 m/s, the speed of sound ([2]; x1 = 0.508) was 1385 ± 5 m/s and the speed of sound ([2]; x1 = 0.5892) was 1408 ± 5 m/s. For the same compound, the speed of sound ([2]; x1 = 0.6666) was 1434 ± 5 m/s, the speed of sound ([2]; x1 = 0.7287) was 1459 ± 5 m/s and the speed of sound ([2]; x1 = 0.7884) was 1485 ± 5 m/s. For the same compound, the speed of sound ([2]; x1 = 0.8314) was 1505 ± 5 m/s and the speed of sound ([2]; x1 = 0.909) was 1547 ± 5 m/s.
Work on Cc1ccccc1 [toluene] yielded a speed of sound ([1]; 298.15 K) of 1304.6 ± 5.4 m/s and a mass density ([1]; 298.15 K) of 862.21 ± 5.4 kg/m3.
Cc1ccc(C)cc1 [1,4-dimethylbenzene] gave a speed of sound ([1]; 298.15 K) of 1310.1 ± 5.4 m/s and a mass density ([1]; 298.15 K) of 856.58 ± 5.3 kg/m3.
With Cc1ccccc1N [2-methylaniline] + Cc1ccc(C)cc1 the speed of sound ([2]; x1 = 0.0534) was 1287 ± 5 m/s, the speed of sound ([2]; x1 = 0.1009) was 1295 ± 5 m/s and the speed of sound ([2]; x1 = 0.1707) was 1308 ± 5 m/s. It also gave a speed of sound ([2]; x1 = 0.2483) of 1325 ± 5 m/s, a speed of sound ([2]; x1 = 0.32) of 1342 ± 5 m/s and a speed of sound ([2]; x1 = 0.3949) of 1361 ± 5 m/s. For the same compound, the speed of sound ([2]; x1 = 0.4559) was 1378 ± 5 m/s, the speed of sound ([2]; x1 = 0.5332) was 1402 ± 5 m/s and the speed of sound ([2]; x1 = 0.6007) was 1423 ± 5 m/s. It also gave a speed of sound ([2]; x1 = 0.6897) of 1455 ± 5 m/s, a speed of sound ([2]; x1 = 0.7417) of 1475 ± 5 m/s and a speed of sound ([2]; x1 = 0.8009) of 1500 ± 5 m/s. For the same compound, the speed of sound ([2]; x1 = 0.8668) was 1530 ± 5 m/s and the speed of sound ([2]; x1 = 0.9374) was 1567 ± 5 m/s.
Compound Cc1ccccc1N [2-methylaniline] + Cc1ccccc1 has a speed of sound ([2]; x1 = 0.0457) of 1270 ± 5 m/s, a speed of sound ([2]; x1 = 0.0998) of 1283 ± 5 m/s and a speed of sound ([2]; x1 = 0.1516) of 1296 ± 5 m/s. It also gave a speed of sound ([2]; x1 = 0.2017) of 1308 ± 5 m/s, a speed of sound ([2]; x1 = 0.2773) of 1327 ± 5 m/s and a speed of sound ([2]; x1 = 0.3496) of 1346 ± 5 m/s. The speed of sound ([2]; x1 = 0.407) was 1359 ± 5 m/s, the speed of sound ([2]; x1 = 0.4797) was 1381 ± 5 m/s and the speed of sound ([2]; x1 = 0.5882) was 1414 ± 5 m/s. It also gave a speed of sound ([2]; x1 = 0.6667) of 1440 ± 5 m/s, a speed of sound ([2]; x1 = 0.7464) of 1470 ± 5 m/s and a speed of sound ([2]; x1 = 0.8033) of 1494 ± 5 m/s. It also gave a speed of sound ([2]; x1 = 0.8647) of 1523 ± 5 m/s and a speed of sound ([2]; x1 = 0.9223) of 1554 ± 5 m/s.
Cc1ccccc1N [2-methylaniline] gave a mass density ([1]; 298.15 K) of 994.28 ± 7.2 kg/m3 and a speed of sound ([1]; 308.15 K) of 1603 ± 5 m/s.
